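A five-concentration, 48-hour dose response in 96-well plates underlies each endpoint, interpolated linearly between surrounding concentrations. Here, GI50 denotes the concentration required for 50% inhibition of growth. At the TGI there is no net growth.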

We go through 13 compounds from PubChem BioAssay (NCI).

Among the test systems are OVCAR-8 ovarian; LOX IMVI melanoma; HOP-62 NSCLC; SK-MEL-28 melanoma; NCI-H23 lung; MOLT-4 leukemia; SNB-75 CNS; SK-MEL-5 melanoma; HOP-92 NSCLC; CAKI-1 renal.
Holding throughout (experiment): NCI tumour cell line growth inhibition, 48 h

On to `COc1ccc(/C(Cl)=C(\C=O)c2ccc(Br)cc2)cc1OC`, for which the TGI in the experiment on OVCAR-8 ovarian, in the experiment on LOX IMVI melanoma, in the experiment with HOP-62 NSCLC, in the experiment with SK-MEL-28 melanoma, with NCI-H23 lung and in the experiment with MOLT-4 leukemia was more than 100 µM in each case. For the same compound, the TGI was 30 µM in the experiment on SNB-75 CNS, more than 100 µM with SK-MEL-5 melanoma, 72.6 µM with HOP-92 NSCLC and more than 100 µM in the experiment with CAKI-1 renal.
Consider `O=C(O)c1ccc(-c2ccc(C(=O)O)cc2I)c(I)c1`, for which the GI50 with OVCAR-8 ovarian, in the experiment on LOX IMVI melanoma, with HOP-62 NSCLC, in the experiment with SK-MEL-28 melanoma, in the experiment on NCI-H23 lung and with MOLT-4 leukemia was more than 100 µM in each case. Moreover, the GI50 in the experiment with SNB-75 CNS, in the experiment with SK-MEL-5 melanoma, in the experiment on HOP-92 NSCLC and in the experiment with CAKI-1 renal was more than 100 µM throughout. The TGI in the experiment on OVCAR-8 ovarian, in the experiment with LOX IMVI melanoma, with HOP-62 NSCLC, in the experiment on SK-MEL-28 melanoma, with NCI-H23 lung and with MOLT-4 leukemia was more than 100 µM each time. Also, the TGI in the experiment with SNB-75 CNS, in the experiment on SK-MEL-5 melanoma, with HOP-92 NSCLC and in the experiment with CAKI-1 renal was more than 100 µM each time.
Take `O=C(NCCN1CCOCC1)Nc1ccc(-c2cc3c(Nc4ccc(Oc5cccc(C(F)(F)F)c5)c(Cl)c4)ncnc3s2)cc1`: the GI50 with OVCAR-8 ovarian was 2.4 µM; in the experiment on LOX IMVI melanoma it was 0.841 µM; with HOP-62 NSCLC, 1.46 µM; in the experiment on SK-MEL-28 melanoma it was 0.809 µM; in the experiment on NCI-H23 lung, 1.51 µM; in the experiment on MOLT-4 leukemia, 1.22 µM. The GI50 with SNB-75 CNS was 0.642 µM; in the experiment with SK-MEL-5 melanoma it was 0.916 µM; in the experiment with HOP-92 NSCLC, 1.66 µM; in the experiment on CAKI-1 renal, 1.5 µM. Besides, the TGI with OVCAR-8 ovarian amounted to 9.88 µM; in the experiment on LOX IMVI melanoma it was 1.58 µM; in the experiment on HOP-62 NSCLC it was 5.93 µM; with SK-MEL-28 melanoma, 1.6 µM; in the experiment on NCI-H23 lung, 5.76 µM; in the experiment on MOLT-4 leukemia it was 3.75 µM. Besides, the TGI in the experiment with SNB-75 CNS amounted to 1.9 µM; in the experiment with SK-MEL-5 melanoma it was 1.71 µM; in the experiment on HOP-92 NSCLC, 7.43 µM; in the experiment with CAKI-1 renal it was 5.74 µM.
Consider `CCN(Cc1nc2cc(C(F)(F)F)ccc2nc1-c1ccccc1)c1ccc(OC)c(OC)c1`, for which the GI50 with OVCAR-8 ovarian was 1.51 µM; in the experiment with LOX IMVI melanoma, 14.2 µM; in the experiment with HOP-62 NSCLC, 15.1 µM; with SK-MEL-28 melanoma it was 25.2 µM; with NCI-H23 lung, 13.5 µM; in the experiment on MOLT-4 leukemia, 11.8 µM. The GI50 was 24.5 µM in the experiment on SNB-75 CNS, 13.9 µM in the experiment with SK-MEL-5 melanoma, 15 µM in the experiment with HOP-92 NSCLC and 17.4 µM in the experiment with CAKI-1 renal. For the same compound, the TGI in the experiment with OVCAR-8 ovarian was 18.7 µM; in the experiment with LOX IMVI melanoma, 27.2 µM; with HOP-62 NSCLC, 29.1 µM; with SK-MEL-28 melanoma it was 76 µM; in the experiment with NCI-H23 lung, 34.2 µM; in the experiment with MOLT-4 leukemia, 52.1 µM. For the same compound, the TGI in the experiment with SNB-75 CNS was found to be 71.7 µM; in the experiment with SK-MEL-5 melanoma, 28 µM; with HOP-92 NSCLC, 30.4 µM; with CAKI-1 renal it was 64.2 µM.
Take `CCn1c(-c2nonc2N)nc2c(C#CC(C)(C)O)nc(O[C@@H](CN)c3ccccc3)cc21`: the GI50 in the experiment on OVCAR-8 ovarian is 0.244 µM; with LOX IMVI melanoma it was 0.14 µM; with HOP-62 NSCLC, 0.294 µM; in the experiment with SK-MEL-28 melanoma, 0.399 µM; in the experiment with NCI-H23 lung it was 0.344 µM; with MOLT-4 leukemia it was 0.11 µM. The GI50 in the experiment on SNB-75 CNS was 0.122 µM; in the experiment with SK-MEL-5 melanoma it was 0.413 µM; with HOP-92 NSCLC, 0.0727 µM; in the experiment on CAKI-1 renal, 3.7 µM. Moreover, the TGI in the experiment with OVCAR-8 ovarian amounted to 2.59 µM; in the experiment on LOX IMVI melanoma, 1.32 µM; in the experiment on HOP-62 NSCLC it was 1.98 µM; in the experiment on SK-MEL-28 melanoma, 1.19 µM; in the experiment on NCI-H23 lung it was 2.97 µM; in the experiment with MOLT-4 leukemia, 1.97 µM. Also, the TGI with SNB-75 CNS worked out at 4.06 µM; with SK-MEL-5 melanoma, 0.892 µM; in the experiment on HOP-92 NSCLC, 1.12 µM; in the experiment on CAKI-1 renal, 12.3 µM.
With `CCCC[P+](c1ccccc1)(c1ccccc1)c1ccccc1`, the GI50 in the experiment on OVCAR-8 ovarian was 2.68 µM; in the experiment on LOX IMVI melanoma, 3.01 µM; with HOP-62 NSCLC, 2.55 µM; in the experiment on SK-MEL-28 melanoma it was 28.1 µM; in the experiment on NCI-H23 lung it was 2.57 µM; in the experiment on MOLT-4 leukemia, 5.72 µM. Further, the GI50 in the experiment with SNB-75 CNS was 4.95 µM; with SK-MEL-5 melanoma, 0.534 µM; with HOP-92 NSCLC, 0.675 µM; with CAKI-1 renal, more than 100 µM. Further, the TGI was more than 100 µM with OVCAR-8 ovarian; more than 100 µM in the experiment on LOX IMVI melanoma; more than 100 µM in the experiment with HOP-62 NSCLC; more than 100 µM in the experiment on SK-MEL-28 melanoma; 32.6 µM in the experiment with NCI-H23 lung; more than 100 µM in the experiment on MOLT-4 leukemia. Moreover, the TGI with SNB-75 CNS was more than 100 µM; in the experiment on SK-MEL-5 melanoma it was 6.63 µM; in the experiment on HOP-92 NSCLC, 6.58 µM; in the experiment with CAKI-1 renal, more than 100 µM.
Take `COC(=O)[C@@H](Cc1c[nH]c2ccccc12)NC(=O)/C=C/c1ccccc1`: the GI50 was 3.6 µM in the experiment on OVCAR-8 ovarian; 3.73 µM with LOX IMVI melanoma; 3.62 µM in the experiment on HOP-62 NSCLC; 4.43 µM in the experiment on SK-MEL-28 melanoma; 4.32 µM in the experiment with NCI-H23 lung; 3.57 µM with MOLT-4 leukemia. In addition, the GI50 with SNB-75 CNS is 2.42 µM; in the experiment on SK-MEL-5 melanoma, 3.14 µM; in the experiment with HOP-92 NSCLC, 0.235 µM; in the experiment on CAKI-1 renal, 3.42 µM. The TGI with OVCAR-8 ovarian, in the experiment on LOX IMVI melanoma, in the experiment on HOP-62 NSCLC, in the experiment with SK-MEL-28 melanoma, in the experiment with NCI-H23 lung and with MOLT-4 leukemia was more than 100 µM each time. The TGI is more than 100 µM in the experiment on SNB-75 CNS, 13.8 µM in the experiment on SK-MEL-5 melanoma, 4.29 µM in the experiment with HOP-92 NSCLC and more than 100 µM in the experiment with CAKI-1 renal.
For `N#CCC(=O)N/N=C1/C(=O)NC(=O)C(=O)C1c1nc2ccccc2s1` (stereo not given), the TGI in the experiment with OVCAR-8 ovarian, in the experiment with LOX IMVI melanoma, in the experiment with HOP-62 NSCLC, in the experiment on SK-MEL-28 melanoma, in the experiment with NCI-H23 lung and with MOLT-4 leukemia was more than 100 µM throughout. For the same compound, the TGI in the experiment on SNB-75 CNS, in the experiment on SK-MEL-5 melanoma, with HOP-92 NSCLC and with CAKI-1 renal was more than 100 µM in each case.
Regarding `O=C(NCCCNC(=O)OCc1ccc2c(Br)cc(Br)c(O)c2n1)OCc1ccc2c(Br)cc(Br)c(O)c2n1`, the GI50 in the experiment on OVCAR-8 ovarian, in the experiment on LOX IMVI melanoma, in the experiment with HOP-62 NSCLC, with SK-MEL-28 melanoma, in the experiment with NCI-H23 lung and in the experiment on MOLT-4 leukemia was more than 100 µM each time. The GI50 in the experiment with SNB-75 CNS, in the experiment on SK-MEL-5 melanoma, with HOP-92 NSCLC and in the experiment with CAKI-1 renal was more than 100 µM each time. Also, the TGI in the experiment on OVCAR-8 ovarian, in the experiment on LOX IMVI melanoma, with HOP-62 NSCLC, with SK-MEL-28 melanoma, in the experiment on NCI-H23 lung and in the experiment with MOLT-4 leukemia was more than 100 µM throughout. In addition, the TGI with SNB-75 CNS, with SK-MEL-5 melanoma, in the experiment on HOP-92 NSCLC and with CAKI-1 renal was more than 100 µM throughout.
Consider `COC(=O)C1=C(c2cc(OC)c(OC)c(OC)c2)OC(c2cc(OC)c(OC)c(OC)c2)C1COC(C)=O` (stereo not given), for which the TGI in the experiment with OVCAR-8 ovarian was more than 100 µM; in the experiment with LOX IMVI melanoma, 57 µM; with HOP-62 NSCLC, more than 100 µM; in the experiment with SK-MEL-28 melanoma it was more than 100 µM; in the experiment on NCI-H23 lung, more than 100 µM; in the experiment with MOLT-4 leukemia, 58.7 µM. Moreover, the TGI was more than 100 µM in the experiment with SNB-75 CNS, 97.8 µM with SK-MEL-5 melanoma, more than 100 µM in the experiment on HOP-92 NSCLC and more than 100 µM in the experiment with CAKI-1 renal.
With `O=C(O)c1ccc(S(=O)(=O)N=Nc2c(O)[nH]c3ccccc23)cc1`, the TGI with OVCAR-8 ovarian, in the experiment with LOX IMVI melanoma, with HOP-62 NSCLC, in the experiment on SK-MEL-28 melanoma, with NCI-H23 lung and with MOLT-4 leukemia was more than 100 µM each time. Further, the TGI in the experiment on SNB-75 CNS, with SK-MEL-5 melanoma, with HOP-92 NSCLC and in the experiment with CAKI-1 renal was more than 100 µM each time.
For `C=CC[Se]C(=O)Cc1c(C)n(C(=O)c2ccc(Cl)cc2)c2ccc(OC)cc12`, the GI50 is 1.84 µM in the experiment with OVCAR-8 ovarian; 1.74 µM in the experiment with LOX IMVI melanoma; 0.435 µM with HOP-62 NSCLC; 1.69 µM with SK-MEL-28 melanoma; 1.91 µM in the experiment with NCI-H23 lung; 2.87 µM with MOLT-4 leukemia. In addition, the GI50 was 1.48 µM in the experiment on SNB-75 CNS, 1.73 µM with SK-MEL-5 melanoma, 1.85 µM with HOP-92 NSCLC and 1.66 µM with CAKI-1 renal. Also, the TGI in the experiment on OVCAR-8 ovarian is 3.68 µM; with LOX IMVI melanoma, 3.34 µM; in the experiment on HOP-62 NSCLC, 2.93 µM; in the experiment on SK-MEL-28 melanoma, 3.12 µM; in the experiment with NCI-H23 lung it was 3.87 µM; in the experiment on MOLT-4 leukemia it was 8.72 µM. Besides, the TGI with SNB-75 CNS worked out at 2.81 µM; in the experiment with SK-MEL-5 melanoma, 3.13 µM; in the experiment on HOP-92 NSCLC, 4.09 µM; in the experiment on CAKI-1 renal, 3.05 µM.
For the compound `CCCCCCNC(=O)Oc1ccc(/C(=C(\C)c2ccccc2)c2ccc(OCCN3CCCCC3)cc2)cc1`, the GI50 in the experiment on OVCAR-8 ovarian was 2.14 µM; with LOX IMVI melanoma, 1.71 µM; in the experiment on HOP-62 NSCLC it was 3.22 µM; in the experiment on SK-MEL-28 melanoma it was 2.06 µM; in the experiment on NCI-H23 lung, 3.06 µM; in the experiment with MOLT-4 leukemia, 2.68 µM. The GI50 in the experiment on SNB-75 CNS was 2.01 µM; in the experiment on SK-MEL-5 melanoma it was 1.63 µM; in the experiment with HOP-92 NSCLC it was 1.51 µM; in the experiment on CAKI-1 renal, 2.2 µM. For the same compound, the TGI in the experiment on OVCAR-8 ovarian turned out to be 5.94 µM; in the experiment with LOX IMVI melanoma, 3.09 µM; in the experiment with HOP-62 NSCLC, 10.9 µM; in the experiment with SK-MEL-28 melanoma it was 4.41 µM; in the experiment with NCI-H23 lung, 11.6 µM; with MOLT-4 leukemia, 9.66 µM. Also, the TGI in the experiment with SNB-75 CNS came out at 10.1 µM; in the experiment on SK-MEL-5 melanoma, 2.99 µM; with HOP-92 NSCLC it was 5.04 µM; with CAKI-1 renal it was 5.11 µM.
